In ChEMBL document CHEMBL3046274, “Toxicity of imidacloprid to developmental stages of Rhynchophorus ferrugineus (Curculionidae: Coleoptera): Laboratory and field tests” (Crop Prot, 2006):

What was measured:
Type in all cases: ADME
Pinnae [1] = test: Drug uptake in Phoenix dactylifera (date palm) pinnae at 2.5 ml/l at 20 days post-treatment by UV spectrophotometric analysis; settings: 480 h
Rachis [2] = test: Drug uptake in Phoenix dactylifera (date palm) rachis at 2.5 ml/l at 20 days post-treatment by UV spectrophotometric analysis; settings: 480 h
Root [3] = test: Drug uptake in Phoenix dactylifera (date palm) roots at 2.5 ml/l at 20 days post-treatment by UV spectrophotometric analysis; settings: 480 h
Leaf base [4] = test: Drug uptake in Phoenix dactylifera (date palm) leaf base at 2.5 ml/l at 20 days post-treatment by UV spectrophotometric analysis; settings: 480 h
Rachis [5] = test: Drug uptake in Phoenix dactylifera (date palm) rachis at 2.5 ml/l at 10 days post-treatment by UV spectrophotometric analysis; settings: 240 h
Pinnae [6] = test: Drug uptake in Phoenix dactylifera (date palm) pinnae at 2.5 ml/l at 10 days post-treatment by UV spectrophotometric analysis; settings: 240 h
Gomar [7] = test: Drug uptake in Phoenix dactylifera (date palm) gomar at 2.5 ml/l at 10 days post-treatment by UV spectrophotometric analysis; settings: 240 h
Root [8] = test: Drug uptake in Phoenix dactylifera (date palm) roots at 2.5 ml/l at 10 days post-treatment by UV spectrophotometric analysis; settings: 240 h
Gomar [9] = test: Drug uptake in Phoenix dactylifera (date palm) gomar at 2.5 ml/l at 20 days post-treatment by UV spectrophotometric analysis; settings: 480 h
Leaf base [10] = test: Drug uptake in Phoenix dactylifera (date palm) leaf base at 2.5 ml/l at 10 days post-treatment by UV spectrophotometric analysis; settings: 240 h

O=[N+]([O-])NC1=NCCN1Cc1ccc(Cl)nc1 [IMIDACLOPRID]
Drug uptake (Pinnae [1]): 1.21 ppm | Drug uptake (Rachis [2]): 1.11 ppm | Drug uptake (Root [3]): 0.18 ppm | Drug uptake (Leaf base [4]): 0.38 ppm | Drug uptake (Rachis [5]): 1.31 ppm | Drug uptake (Pinnae [6]): 0.32 ppm | Drug uptake (Gomar [7]): 0.46 ppm | Drug uptake (Root [8]): 0.41 ppm | Drug uptake (Gomar [9]): 0.33 ppm | Drug uptake (Leaf base [10]): 0.51 ppm
